Experimental findings from patent US20090286745A1, “INHIBITION OF ALPHA-SYNUCLEIN AGGREGATION” (Zapaloid Limited, priority 2006, published 2009) are described below.

Entries after “also recorded” stand apart in the source; their conditions may differ. Bounds are passed on as bounds.

The target of assay [1] is T1, ASYN (Homo sapiens, UniProt P37840). Description: Kinetic ThT aggregation assay in 25 mM Tris-Cl pH 7.4 with 100 mg/ml PEG 3350. The class given is biochemical. The following applies: 50 μM ASYN, 100 μM inhibitor; for inhibition compared to ASYN alone: both buffer conditions (Tris-Cl pH 7.4 and PBS); for ThT signal compared to ASYN (FIG. 11): endpoint, Tris-Cl pH 7.4 at 37° C. with 100 mg/ml PEG 3350. The protocol: (§1) Kinetic ThT assays were performed by adding ThT directly to the sample at time=0. A 2.5 mM ThT stock solution was made up in the buffer that was used in the aggregation experiment, filtered through a […] Millex GV filter and diluted to 62.5 μM by adding 5 μl to final sample volume of 200 μl in a 96-well polypropylene plate. The increase in fluorescence over time as a result of amyloid formation was measured in a Biotek Synergy HT plate reader at 37° C. with shaking. Cut off filters were used for exitation at 440/30 nm and emission at 485/20 nm. Readings were every 10 minutes with shaking for 500 seconds before each reading.
For compounds ZP-0089 to ZP-0094, a kinetic ThT experiment was performed in 25 mM Tris-Cl at 37° C. to test the inhibition properties of ZP-0089 to ZP-0094 in Tris-Cl pH 7.4. Each 200 μl sample on the 96 well-plate contained 50 μM ASYN, 100 μM inhibitor and 100 mg/ml PEG along with buffer only and ASYN only controls. Samples were measured in triplicate. ThT fluorescence over time was monitored for 48 hours.

In assay [2] the target is T1, ASYN. Description: Kinetic ThT aggregation assay in PBS pH 7.4. Type of assay: biochemical. Particulars: for endpoint ThT fluorescence / lag phase / lag time / rate of amyloid formation: FIG. 13, PBS, asyn:inhibitor 1:2; for ThT signal compared to ASYN (FIG. 12): endpoint, legend prints Tris-Cl pH 7.4 at 37° C. with 100 mg/ml PEG 3350. On the procedure:
The molar ratio of asyn:inhibitor is 1:2. For both, ASYN aggregation inhibition is observed as an increased lag time along with decreased endpoint ThT fluorescence.
as §1
For compounds ZP-0089 to ZP-0094, a kinetic experiment was performed to test the inhibition properties in PBS pH 7.4 as described above. Samples were assayed in triplicate and each sample contained 50 μl of 200 μM ASYN and 50 μl of 400 μM inhibitor was added to 100 μl PBS in a well and mixed to yield a 200 μl sample volume containing 50 μM ASYN and 100 μM inhibitor. Control wells contained either buffer only or ASYN only.

On to L-DOPA-gpvntvq-NH2 [ZP-0090], for which, in assay [1], the “inhibition compared to ASYN alone” value is recorded as > 30% and the “ThT signal compared to ASYN (FIG. 11)” value was “significantly decreased”. In addition, in assay [2], the “endpoint ThT fluorescence” value is listed as “decreased”, the “lag phase / lag time” value is given as “increased”, the “rate of amyloid formation” value is on record as “decreased” and the “ThT signal compared to ASYN (FIG. 12)” value is “significantly decreased”.

Regarding L-DOPA-sgvylvg-NH2 [ZP-0089], in assay [1], the “inhibition compared to ASYN alone” value was > 60% and the “ThT signal compared to ASYN (FIG. 11)” value was “significantly decreased”. In addition, in assay [2], the “endpoint ThT fluorescence” value is listed as “decreased”, the “lag phase / lag time” value is “large increase; also recorded: increased”, the “rate of amyloid formation” value is “decreased” and the “ThT signal compared to ASYN (FIG. 12)” value was “significantly decreased”.
